From paper PMC3788796, “The Antimicrobial Domains of Wheat Puroindolines Are Cell-Penetrating Peptides with Possible Intracellular Mechanisms of Action” (PLoS ONE, 2013)
≈ marks a conversion by molar mass, not a printed value. Where “and” joins values, the source holds several entries; their conditions need not be identical. Equal values may be shown once.

Key:
E. coli cells = conditions: data from previous work; cited from earlier work
[1] = system: Saccharomyces cerevisiae (ATCC 287); assay: MIC of the peptides against yeast cells; type: cell-based; conditions: PDB, 96-well two-fold dilution 250 to 2 µg/mL, 0.5–2×10^3 cells/mL, overnight 30°C, growth observed visually
Method: Saccharomyces cerevisiae (ATCC 287) was grown in Potato Dextrose Broth (PDB) overnight at 30°C with shaking at 220 rpm. The cultures were vortexed vigorously and the cell suspension adjusted to 1–5×10^6 cells/mL with PDB (McFarland standard 0.5) and then diluted 1∶200 with PDB to a final concentration of 0.5–2×10^3 cells/mL [37]. The MIC assays were carried out in 96-well plates as described previously. Peptides (PuroA, Pina-M, Pina-W→F and PuroB) in 25 µL volumes were added to the first empty well and a two-fold dilution was carried out across each row with a starting peptide concentration of 250 µg/mL and a final one of 2 µg/mL. Test wells were subsequently inoculated with 75 µL yeast cells (0.5–2×10^3 cells/mL) and incubated overnight at 30°C. Negative control (no peptide) and positive control (fungicide Mycobutanil) wells were also prepared. The MIC was defined as the lowest concentration of the peptide required to inhibit fungal growth, observed visually.

S. cerevisiae cells = assay: Propidium iodide uptake by yeast cells; type: cell-based, Saccharomyces cerevisiae; conditions: peptide 125 µg/mL, 1 h 30°C in PBS pH 7.4, PI 6 µg/mL 5 min; no-peptide control 5.7; average of 4 fields, two independent experiments
Method: S. cerevisiae was grown overnight at 30°C in 100 mL PDB and the cells collected by centrifugation and resuspended in Phosphate Buffered Saline (PBS: 137 mM NaCl, 2.7 mM KCl, 8 mM Na2HPO4, 1.46 mM KH2PO4; pH 7.4) to ∼1.5×10^7 cells/mL (OD600 = 0.6–0.8). 75 µL of the suspension was incubated with 25 µL of stock solutions of PuroA, Pina-M, Pina-W→F, PuroB and indolicidin (to give a final peptide concentration of 64, 125, 250 or 500 µg/mL), or with PBS (for no-peptide controls) for 1 h at 30°C, followed by staining with propidium iodide (PI) as described. PI stock solution (60 µg/mL) was prepared in MilliQ water and stored in dark at −20°C. It was diluted to 12 µg/mL before use, mixed 1∶1 with peptide-treated or untreated yeast cells (to final PI concentration 6 µg/mL), and the samples incubated in the dark for 5 min. A 10 µL aliquot of these was examined using a Nikon Eclipse 50 i fluorescence microscope with 561 nm excitation and 630/22 emission filter, at 400×magnification. The photomicrographs were taken under light and fluorescence for each field. Five randomly selected fields were recorded and scored for each sample.

E. coli (ATCC 25922) = assay: E. coli filamentation assay (in vivo inhibition of DNA synthesis); type: cell-based, Escherichia coli; conditions: peptide 2–250 µg/mL, 3 h 37°C, Crystal Violet, light microscopy 1000×; triplicate
Method: The method as described was used to assess if the PIN-based peptides cause filamentation of E. coli cells, indicative of inhibition of in vivo DNA synthesis. E. coli (ATCC 25922) grown to logarithmic phase (OD600 = 0.2) was diluted to OD600 of ∼0.04. 75 µL of this culture was mixed with 25 µL of a peptide solution (to a final peptide concentration of 2–250 µg/mL) and incubated for 3 h at 37°C. 50 µL of the sample was spotted onto a glass slide, air dried, and stained with Crystal Violet for 1 min. Peptide mixed with water was used as negative control, and the Trp-rich AMP indolicidin (ILPWKWPWWPWRR-NH2) was used as a positive control due to its known filamentation effect. All samples were tested in triplicate. The cells were observed by light microscopy (1000×magnification).

[2] = system: plasmid DNA (pBluescript SK+); assay: Gel retardation assay for in vitro DNA binding; conditions: 100 ng plasmid DNA in 10 µL MilliQ water, 1 h room temperature, peptide 16–500 µg/mL, post-electrophoresis EtBr staining, triplicate assays; for Peptide concentration inducing gel retardation, Full: complete inhibition of migration
Method: This test assesses any peptide-DNA binding by noting the retardation of the rate of migration of DNA bands through agarose gels. A number of methods were tested. As per Hsu et al., DNA of a plasmid (200 ng) or a commercial molecular weight marker (50 ng) was mixed with a peptide (to final concentrations of 32, 64, 125 or 250 µg/mL) in 15 µL of 10 mM Tris-1 mM EDTA buffer (pH 8.0), incubated at room temperature for 2 min, then electrophoresed in 0.5% or 1.0% agarose gels containing 0.5 µg/mL ethidium bromide (EtBr). Following Park et al., 100 ng plasmid DNA was mixed with a peptide (to different concentrations) in 20 µL binding buffer (5% glycerol, 10 mM Tris-HCl (pH 8.0), 1 mM EDTA, 1 mM DTT, 20 mM KCl, 50 µg/mL BSA), held for 1 h at room temperature, then electrophoresed in EtBr-containing gels. Finally the protocols were modified to eliminate any interference of EtBr in the initial peptide-DNA binding. Plasmid DNA (100 ng) was mixed with a peptide (to final concentrations of 16, 32, 64, 125, 250 or 500 µg/mL) in 10 µL of MilliQ water, held at room temperature for 1 h and electrophoresed, followed by emersion of gels in EtBr solution (0.5 µg/mL) for 30 min before imaging.

[3] = Calcein dye leakage from bacteria-mimicking LUVs; type: biochemical; conditions: positive control, 1.0% Triton X100; average of duplicate experiments
Method: (§1) A calcein leakage assay as previously described was performed to determine the effects of PIN-based peptides on the permeability of synthetic large unilamellar vesicles (LUVs), designed to mimic bacterial and mammalian cell membranes. The phospholipids used were DOPC (1,2-dioleoyl-sn-glycero-3-phosphocholine), with zwitterionic head groups and DOPG (1,2-dioleoyl-sn-glycerol-3-[phosphor-rac-(1-glycerol)]), with negatively charged headgroups (Avanti® Polar lipids, Alabaster, USA). These were used to make DOPC:DOPG (1∶3) LUVs to mimic bacterial cell membranes, or DOPC only, to mimic mammalian cell membranes. Calcein-entrapped LUVs were prepared by the extrusion method using an Avanti mini extrusion apparatus (Avanti® Polar Lipids, Alabaster, USA). The DOPC:DOPG (a 1∶3 mixture) or DOPC were dissolved in chloroform (25 mg/mL) and aliquoted into glass test tubes to give a concentration of 2.6 mM when resuspended in 2 mL buffer. Chloroform was evaporated under a stream of N2 and the lipid films were dried overnight under vacuum. The films were then resuspended in 2.0 mL of 70 mM calcein buffer (in 10 mM Tris-HCl, pH 7.4) and incubated at room temperature for 30 minutes. To increase entrapment of the dye, five repeated freeze\thaw cycles were used by placing the vial in liquid N2 and then a warm water bath (37°C). The lipid mixture was then extruded through the mini-extruder 10 times through two stacked 0.1 µm pore-size filters. Free calcein was removed by centrifugation (10, 000×g, 10 min) three times and washing with 10 mM Tris, 100 mM NaCl buffer (pH 7.4). Standards of phosphorus (inorganic P; Pi) were prepared (0.05–1.5 mg/mL) using KH2PO4 and read at 820 nm and a linear standard curve was generated (Figure S1 in File S1). The phospholipid concentration of the vesicle preparations was determined by a total phosphorus assay. The assay reagent was prepared fresh by mixing 1 part of 1% ascorbic acid with 6 parts of 0.42% ammonium molybdate•4H2O in H2SO4 and stored on ice. 7 µL of it was added to 3 µL of vesicle suspensions and incubated for 20 min at 45°C. […] The standard curve of phosphorus standards (Figure S1 in File S1) was used to determine the Pi concentration in a LUV preparation, and this was converted to phospholipid concentration (Table S1 in File S1) to adjust the preparations to the required 10 µM phospholipid concentration prior to peptide treatment.
(§2) The calcein-filled LUVs were diluted with 10 mM Tris, 100 mM NaCl buffer (pH 7.4) to a final phospholipid concentration of 10 µM. The experiments were performed in a Varian Cary Eclipse fluorescence spectrophotometer with excitation and emission wavelengths of 496 nm and 515 nm, slit widths of […] and a PMT detector of 600 V. The peptides (PuroA, Pina-M, Pina-W→F and PuroB) were added to LUVs to a final peptide concentration of 8–125 µg/mL in 100 µL volumes and the fluorescence (F) monitored for 5 min at 60 s intervals. The total calcein fluorescence (FT) was determined by addition of 1.0% Triton X100. The dye leakage was calculated as % Leakage = ((F – F0)/(FT – F0)), F0 being fluorescence of each sample at T = 0.

[4] = Calcein dye leakage from mammalian-mimicking LUVs; type: biochemical; conditions: positive control, 1.0% Triton X100; average of duplicate experiments
Method: as §1, §2

Row | Compound | MIC against E. coli cells (E. coli cells) [µg/mL] | MIC against S. cerevisiae [1] [µg/mL] | % fluorescent cells (propidium iodide uptake) (S. cerevisiae cells) [%] | Minimum peptide concentration inducing filamentation in E. coli (E. coli (ATCC 25922)) [µg/mL] | Peptide concentration inducing gel retardation, Partial [2] [µg/mL] | Peptide concentration inducing gel retardation, Full [2] | Peptide concentration inducing gel retardation, Full ([2]; listed as indolicidin) [µg/mL] | % Calcein leakage from DOPC:DOPG LUVs [3] [%] | % Calcein leakage from DOPC LUVs [4] [%]
1 | CC[C@H](C)[C@H](N)C(=O)N[C@@H](CC(C)C)C(=O)N1CCC[C@H]1C(=O)N[C@@H](Cc1c[nH]c2ccccc12)C(=O)N[C@@H](CCCCN)C(=O)N[C@@H](Cc1c[nH]c2ccccc12)C(=O)N1CCC[C@H]1C(=O)N[C@@H](Cc1c[nH]c2ccccc12)C(=O)N[C@@H](Cc1c[nH]c2ccccc12)C(=O)N1CCC[C@H]1C(=O)N[C@@H](Cc1c[nH]c2ccccc12)C(=O)N[C@@H](CCCNC(=N)N)C(=O)N[C@@H](CCCNC(=N)N)C(N)=O [Indolicidin, reference compound] | 32 ± 0 (≈ 16.8 µM) | 125 | 100 | 32 ± 0 | 32 ± 0 | 64 ± 0 µg/mL | 64 |  | 
2 | MPLSWFFPRTWGKR-NH2 [GSP-5D, peptide based on the wheat Grain softness protein-1 (Gsp-1-5D)] | 64 ± 0 |  |  |  | 32 ± 0 | 64 µg/mL and 64 ± 0 µg/mL |  |  | 
3 | Triton x100 [reference compound] |  |  |  |  |  |  |  | 99.0 | 99.0
